The values that follow are results of earlier work, collected in patent publication US11141509B2, “Method for loading at least two powder substances into recesses provided at a stent surface” (CID S.p.A., priority 2016, dated 2021).

The conditions of the data set: Cre8 coronary stent, Amphilimus formulation; Eurointervention 2012; 7:1087-1094.

For the compound `CO[C@H]1C[C@@H]2CC[C@@H](C)[C@@](O)(O2)C(=O)C(=O)N2CCCC[C@H]2C(=O)O[C@H]([C@H](C)C[C@@H]2CC[C@@H](O)[C@H](OC)C2)CC(=O)[C@H](C)/C=C(\C)[C@@H](O)[C@@H](OC)C(=O)[C@H](C)C[C@H](C)/C=C/C=C/C=C/1C` [Sirolimus], the “in vivo release after coronary implantation” value is “greater than 30 days”.
